# Values quoted from earlier work in patent US7348294B2, “Adsorbent and method for adsorbing cardiac glycoside” (Kaneka Corporation, priority 2000, dated 2008).
# Details: octanol-water; ligand before immobilization
structure (smiles),measurement,value
CCCCN [n-butylamine],log P,0.97
